Earlier results as cited in PMC10949855 (Journal of veterinary pharmacology and therapeutics, 2022).

Conditions: oral, dogs; ref KuKanich & KuKanich 2015; Matsui et al 1995; cited from earlier work
For `CN/C(=N/CCSCc1nc[nH]c1C)NC#N` [cimetidine], the TMAX is listed as 1.8 h. For `O=C(N[C@H](CO)[C@H](O)c1ccc([N+](=O)[O-])cc1)C(Cl)Cl` [chloramphenicol], the TMAX is listed as 1.3 h. In the case of `CN(C)CCCC1(c2ccc(F)cc2)OCc2cc(C#N)ccc21` (stereo not shown) [citalopram], the TMAX is listed as 1 h. For `CC(=O)N1CCN(c2ccc(OCC3COC(Cn4ccnc4)(c4ccc(Cl)cc4Cl)O3)cc2)CC1` (stereo not shown) [ketoconazole], the TMAX is given as 2 h.
